From patent publication US9815796B2 (Merck Sharp & Dohme Corp., priority 2013, dated 2017)

Legend:
human PDE2A1 = human PDE2A1 (Homo sapiens (Human), UniProt O00408); assay: IMAP FP PDE selectivity panel, human PDE2A1; format: biochemical; details: Human PDE2, Lab B; read-out: Human PDE2 Ki (nM) - Lab B
Summary of the method: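 IMAP FP format: substrate 50 nM FAM-cAMP plus 1000 nM cGMP, enzyme (insect-cell GST-tagged human PDE2A1) at ~20% conversion, 60 min reaction at room temperature. Apparent inhibition constants calculated from parallel/perpendicular fluorescence with KM 10,000 nM.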

Rhesus PDE2A3 = Rhesus PDE2A3 (Macaca mulatta, UniProt B3VTJ2); assay: PDE2 fluorescence polarization (IMAP FP) inhibition assay, rhesus enzyme; format: biochemical, rhesus macaque; details: Rhesus PDE2, Lab B; read-out: Rhesus PDE2 Ki (nM) - Lab B
Chain of Rhesus PDE2A3 (B3VTJ2 1-941): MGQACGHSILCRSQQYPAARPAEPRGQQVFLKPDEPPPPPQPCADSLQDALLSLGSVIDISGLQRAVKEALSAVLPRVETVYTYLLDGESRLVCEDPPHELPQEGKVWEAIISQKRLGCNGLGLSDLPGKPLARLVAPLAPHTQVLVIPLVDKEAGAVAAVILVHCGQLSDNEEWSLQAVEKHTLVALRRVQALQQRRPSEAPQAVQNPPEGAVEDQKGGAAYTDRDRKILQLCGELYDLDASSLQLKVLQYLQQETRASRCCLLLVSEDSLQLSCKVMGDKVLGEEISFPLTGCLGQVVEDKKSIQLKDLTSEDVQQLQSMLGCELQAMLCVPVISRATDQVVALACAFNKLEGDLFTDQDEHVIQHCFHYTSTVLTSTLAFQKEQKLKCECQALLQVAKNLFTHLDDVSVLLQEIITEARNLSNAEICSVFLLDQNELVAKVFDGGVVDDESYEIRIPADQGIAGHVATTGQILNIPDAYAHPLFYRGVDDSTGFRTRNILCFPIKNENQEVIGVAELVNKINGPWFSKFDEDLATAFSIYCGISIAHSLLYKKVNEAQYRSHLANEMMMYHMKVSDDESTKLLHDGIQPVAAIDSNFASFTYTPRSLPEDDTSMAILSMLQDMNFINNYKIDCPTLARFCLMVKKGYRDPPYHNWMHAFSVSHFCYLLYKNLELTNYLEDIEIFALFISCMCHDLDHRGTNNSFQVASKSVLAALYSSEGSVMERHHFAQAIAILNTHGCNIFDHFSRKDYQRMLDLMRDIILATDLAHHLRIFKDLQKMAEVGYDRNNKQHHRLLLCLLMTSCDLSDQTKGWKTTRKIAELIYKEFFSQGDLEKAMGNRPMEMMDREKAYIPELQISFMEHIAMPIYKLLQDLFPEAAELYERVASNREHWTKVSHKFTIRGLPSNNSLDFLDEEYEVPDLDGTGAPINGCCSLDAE
Summary of the method: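 IMAP FP (mP from parallel and perpendicular fluorescence against substrate-only control) was read ≥1 h after adding binding reagent. The preceding 60 min room-temperature reaction contained FAM-cAMP (50 nM) and cGMP (1 uM) in pH 7.2 Tris buffer with MgCl2 and DTT. Enzyme was supernatant of sonicated AD293 cells expressing rhesus PDE2A3; compounds were 3-fold titrated, DMSO 1% final.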

Chain of human PDE2A1 (O00408 other isoform, or with tags, fused parts or gaps): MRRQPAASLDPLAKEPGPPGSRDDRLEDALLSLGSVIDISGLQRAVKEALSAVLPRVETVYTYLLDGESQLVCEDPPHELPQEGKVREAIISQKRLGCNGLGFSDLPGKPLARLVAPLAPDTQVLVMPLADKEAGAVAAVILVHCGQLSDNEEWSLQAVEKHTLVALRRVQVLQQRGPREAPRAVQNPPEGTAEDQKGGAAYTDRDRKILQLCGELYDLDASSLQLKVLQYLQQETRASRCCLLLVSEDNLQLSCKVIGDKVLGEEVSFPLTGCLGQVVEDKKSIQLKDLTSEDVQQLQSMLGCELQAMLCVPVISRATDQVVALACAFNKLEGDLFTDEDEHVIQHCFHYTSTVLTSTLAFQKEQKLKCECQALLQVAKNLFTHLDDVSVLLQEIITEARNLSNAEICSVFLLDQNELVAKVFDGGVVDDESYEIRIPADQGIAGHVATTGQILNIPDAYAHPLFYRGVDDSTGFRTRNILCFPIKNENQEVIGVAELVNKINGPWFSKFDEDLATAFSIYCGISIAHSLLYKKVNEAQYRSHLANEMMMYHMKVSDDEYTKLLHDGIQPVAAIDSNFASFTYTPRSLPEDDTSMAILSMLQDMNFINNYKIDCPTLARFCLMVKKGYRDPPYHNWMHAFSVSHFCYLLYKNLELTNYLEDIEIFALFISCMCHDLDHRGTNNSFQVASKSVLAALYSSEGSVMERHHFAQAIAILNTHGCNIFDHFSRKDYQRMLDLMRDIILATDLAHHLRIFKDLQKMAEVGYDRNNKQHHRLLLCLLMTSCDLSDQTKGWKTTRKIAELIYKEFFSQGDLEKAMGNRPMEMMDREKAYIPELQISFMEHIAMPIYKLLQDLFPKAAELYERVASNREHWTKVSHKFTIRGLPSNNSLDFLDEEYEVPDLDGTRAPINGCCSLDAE

SMILES	Ki (human PDE2A1) [nM]	Ki (Rhesus PDE2A3) [nM]
CC[C@@H](NC(=O)c1cc(=O)[nH]c(Cc2ccc(OC)cc2)n1)c1ccc(SC(F)(F)F)cc1 [Example 476, 2-(4-methoxybenzyl)-6-oxo-N-[(1R)-1-{4-[(trifluoromethyl)sulfanyl]phenyl}propyl]-1,6-dihydropyrimidine-4-carboxamide]	1.8	1.4
COc1ccc(Cc2nc(C(=O)N[C@@H](c3ccc(OC(F)(F)F)cc3)C3CC3)cc(=O)[nH]2)cc1 [Example 480, N-{(R)-cyclopropyl[4-(trifluoromethoxy)phenyl]methyl}-2-(4-methoxybenzyl)-6-oxo-1,6-dihydropyrimidine-4-carboxamide]	1.9	1.9
CC[C@@H](NC(=O)c1cc(=O)[nH]c(Cc2ccc(OC)cc2)n1)c1ccc(S(F)(F)(F)(F)F)cc1 [Example 482, 2-(4-methoxybenzyl)-6-oxo-N-{(1R)-1-[4-(pentafluoro-λ^6-sulfanyl)phenyl]propyl}-1,6-dihydropyrimidine-4-carboxamide]	3.4	3.3
CC[C@@H](NC(=O)c1cc(=O)[nH]c(Cc2ccc(OC)cc2)n1)c1ccc(C(F)(F)F)c(F)c1 [Example 483, N-{(1R)-1-[3-fluoro-4-(trifluoromethyl)phenyl]propyl}-2-(4-methoxybenzyl)-6-oxo-1,6-dihydropyrimidine-4-carboxamide]	2.9	3
CC[C@@H](NC(=O)c1cc(=O)[nH]c(Cc2ccc(OC)cc2)n1)c1ccc(OC(F)(F)F)cc1 [Example 485, 2-(4-methoxybenzyl)-6-oxo-N-{(1R)-1-[4-(trifluoromethoxy)phenyl]propyl}-1,6-dihydropyrimidine-4-carboxamide]	1.5	1.9
COc1ccc(C(C)(C)c2nc(C(=O)N[C@@H](c3ccc(C(F)(F)F)c(F)c3)C(C)C)cc(=O)[nH]2)cc1 [Example 486, N-{(1R)-1-[3-fluoro-4-(trifluoromethyl)phenyl]-2-methylpropyl}-2-[1-(4-methoxyphenyl)-1-methylethyl]-6-oxo-1,6-dihydropyrimidine-4-carboxamide]	46	60
COc1ccc(C(C)(C)c2nc(C(=O)N[C@@H](c3ccc(OC(F)(F)F)c(F)c3)C(C)(C)C)cc(=O)[nH]2)cc1 [Example 487, N-{(1R)-1-[3-fluoro-4-(trifluoromethoxy)phenyl]-2,2-dimethylpropyl}-2-[1-(4-methoxyphenyl)-1-methylethyl]-6-oxo-1,6-dihydropyrimidine-4-carboxamide]	63	61
COc1ccc(C(C)(C)c2nc(C(=O)N[C@@H](c3ccc(C(F)(F)F)c(F)c3)C(C)(C)C)cc(=O)[nH]2)cc1 [Example 489, N-{(1R)-1-[3-fluoro-4-(trifluoromethyl)phenyl]-2,2-dimethylpropyl}-2-[1-(4-methoxyphenyl)-1-methylethyl]-6-oxo-1,6-dihydropyrimidine-4-carboxamide]	61	69
COc1ccc(C(C)(C)c2nc(C(=O)N[C@@H](c3ccc(OC(F)(F)F)c(F)c3)C(C)C)cc(=O)[nH]2)cc1 [Example 492, N-{(1R)-1-[3-fluoro-4-(trifluoromethoxy)phenyl]-2-methylpropyl}-2-[1-(4-methoxyphenyl)-1-methylethyl]-6-oxo-1,6-dihydropyrimidine-4-carboxamide]	29	42
COc1ccc(C(C)(C)c2nc(C(=O)N[C@@H](c3ccc(OC(F)(F)F)cc3)C(C)C)cc(=O)[nH]2)cc1 [Example 494, 2-[1-(4-methoxyphenyl)-1-methylethyl]-N-{(1R)-2-methyl-1-[4-(trifluoromethoxy)phenyl]propyl}-6-oxo-1,6-dihydropyrimidine-4-carboxamide]	46	54
CC[C@@H](NC(=O)c1cc(=O)[nH]c(C(C)(C)c2ccc(OC)cc2)n1)c1ccc(SC(F)(F)F)cc1 [Example 495, 2-[1-(4-methoxyphenyl)-1-methylethyl]-6-oxo-N-[(1R)-1-{4-[(trifluoromethyl)sulfanyl]phenyl}propyl]-1,6-dihydropyrimidine-4-carboxamide]	45	54

The remaining compounds from weak to strong by Ki (human PDE2A1), led by results:

Ki (human PDE2A1) [nM]	Ki (Rhesus PDE2A3) [nM]	SMILES
62	77	COc1ccc(C(C)(C)c2nc(C(=O)N[C@@H](c3ccc(C(F)(F)F)cc3)C(C)C)cc(=O)[nH]2)cc1 [Example 493, 2-[1-(4-methoxyphenyl)-1-methylethyl]-N-{(1R)-2-methyl-1-[4-(trifluoromethyl)phenyl]propyl}-6-oxo-1,6-dihydropyrimidine-4-carboxamide]
31	43	COc1ccc(C(C)(C)c2nc(C(=O)N[C@@H](c3ccc(SC(F)(F)F)cc3)C(C)C)cc(=O)[nH]2)cc1 [Example 490, 2-[1-(4-methoxyphenyl)-1-methylethyl]-N-[(1R)-2-methyl-1-{4-[(trifluoromethyl)sulfanyl]phenyl}propyl]-6-oxo-1,6-dihydropyrimidine-4-carboxamide]
27	27	COc1ccc(C(C)(C)c2nc(C(=O)N[C@@H](c3ccc(SC(F)(F)F)c(F)c3)C(C)C)cc(=O)[nH]2)cc1 [Example 491, N-[(1R)-1-{3-fluoro-4-[(trifluoromethyl)sulfanoyl]phenyl}-2-methylpropyl]-2-[1-(4-methoxyphenyl)-1-methylethyl]-6-oxo-1,6-dihydropyrimidine-4-carboxamide]
2	1.9	COc1ccc(Cc2nc(C(=O)N[C@@H](c3ccc(SC(F)(F)F)cc3)C3CC3)cc(=O)[nH]2)cc1 [Example 479, N-[(R)-cyclopropyl{4-[(trifluoromethyl)sulfanyl]phenyl}methyl]-2-(4-methoxybenzyl)-6-oxo-1,6-dihydropyrimidine-4-carboxamide]
1.9	1.9	COc1ccc(Cc2nc(C(=O)N[C@@H](c3ccc(C(F)(F)F)cc3)C3CC3)cc(=O)[nH]2)cc1 [Example 481, N-{(R)-cyclopropyl[4-(trifluoromethyl)phenyl]methyl}-2-(4-methoxybenzyl)-6-oxo-1,6-dihydropyrimidine-4-carboxamide]
1.7	1.5	CC[C@@H](NC(=O)c1cc(=O)[nH]c(Cc2ccc(OC)cc2)n1)c1ccc(SC(F)(F)F)c(F)c1 [Example 477, N-[(1R)-1-{3-fluoro-4-[(trifluoromethyl)sulfanyl]phenyl}propyl]-2-(4-methoxybenzyl)-6-oxo-1,6-dihydropyrimidine-4-carboxamide]
1.7	2.1	COc1ccc(Cc2nc(C(=O)N[C@@H](c3ccc(OC(F)(F)F)c(F)c3)C3CC3)cc(=O)[nH]2)cc1 [Example 478, N-{(R)-cyclopropyl[3-fluoro-4-(trifluoromethoxy)phenyl]methyl}-2-(4-methoxybenzyl)-6-oxo-1,6-dihydropyrimidine-4-carboxamide]
1.4	1.3	CC[C@@H](NC(=O)c1cc(=O)[nH]c(Cc2ccc(OC)cc2)n1)c1ccc(OC(F)(F)F)c(F)c1 [Example 484, N-{(1R)-1-[3-fluoro-4-(trifluoromethoxy)phenyl]propyl}-2-(4-methoxybenzyl)-6-oxo-1,6-dihydropyrimidine-4-carboxamide]
